Test results as given in patent US10738019B2, “Compound including basic dye and amino acid, hair dyeing dye, and hair dyeing composition” (HODOGAYA CHEMICAL CO., LTD., priority 2018, dated 2020).

Assay: Water solubility, foaming property and hair feel during hair dyeing
Format: physicochemical
Settings: for hair dyeing (dyeing gel, pH 6 aqueous solution)
Procedure: Subsequently, Human White hair 100% BM-W manufactured by Beaulax Co., Ltd. was used as hair to be dyed. Two parts by mass of the dyeing gel was taken with respect to 1 part by mass of the hair and applied to the hair uniformly using a comb, and the hair was dyed at 40° C. for 10 minutes and washed with water.

Compound	water solubility
CC1=CC(=C(c2ccc(N)c(C)c2)c2ccc(N)c(C)c2)C=CC1=N [Compound (A-3)]	sufficient water solubility for hair dyeing
C[N+](C)(C)c1ccc2ccc(O)c(N=Nc3ccc(N)cc3)c2c1 [Compound (A-5)]	sufficient water solubility for hair dyeing
